The term MIC denotes the smallest concentration in the dilution series that meets the test's criterion for growth inhibition. As a reminder, the LD50 is the dose at which mortality reaches 50%. In general, CC50 refers to the concentration that lowers cell viability or growth by half.

In brackets after ≈: the same amount, converted by molar mass.

Series [1] relates to B16-F10. The series is described as follows: Antiproliferative activity against mouse B16-F10 cells incubated for 24 to 48 hrs by MTT assay. It counts as functional, cell-based.
Series [2] has as its system HepG2. Put plainly: cells. The conditions noted are these: Homo sapiens, HepG2, 48 h.
Series [3] deals with A549. Put plainly: cells. To be noted: Homo sapiens, A549, 48 h.
The subject of series [4] is HeLa. The series is described as follows: cells. The conditions noted are these: Homo sapiens, 48 h.
The subject of series [5] is MCF7. The series is described as follows: cells. To be noted: Homo sapiens, MCF7, 48 h.
The subject of series [6] is Helicobacter pylori. Put plainly: Antimicrobial activity against Helicobacter pylori ATCC 43504 incubated for 3 days by agar dilution method. Type of series: functional. The conditions noted are these: NCTC 11637 = CCUG 17874 = ATCC 43504, 72 h, time 3 day. (In general: In agar dilution the substance is mixed into plates at graded concentrations.)
Series [7] has as its system Helicobacter pylori. Put plainly: Antimicrobial activity against Helicobacter pylori SS1 incubated for 3 days by agar dilution method. Type of series: functional. The conditions noted are these: SS1, 72 h, time 3 day.
Series [8] deals with Helicobacter pylori. Put plainly: Antimicrobial activity against Helicobacter pylori clinical isolate1 for 3 days by agar dilution method. Type of series: functional. To be noted: clinical isolate1, 72 h, time 3 day.
For series [9], the system named is Helicobacter pylori. Put plainly: Antimicrobial activity against Helicobacter pylori clinical isolate3 for 3 days by agar dilution method. To be noted: clinical isolate3, 72 h, time 3 day. Type of series: functional.
Series [10] relates to Helicobacter pylori. Put plainly: Antimicrobial activity against Helicobacter pylori SS1 clinical isolate2 for 3 days by agar dilution method. Type of series: functional. The conditions noted are these: SS1 clinical isolate2, 72 h, time 3 day.
Series [11] has as its system Helicobacter pylori. The series is described as follows: Antimicrobial activity against Helicobacter pylori clinical isolate4 for 3 days by agar dilution method. Type of series: functional. To be noted: clinical isolate4, 72 h, time 3 day.
Series [12] concerns Pseudomonas aeruginosa. Put plainly: Antibacterial activity against Pseudomonas aeruginosa ATCC 13525 by MH media dilution method. It counts as functional.
In series [13] the test system is Escherichia coli. The series is described as follows: Antibacterial activity against Escherichia coli ATCC 35218 by MH media dilution method. Type of series: functional.
In series [14] the test system is Bacillus spizizenii. Put plainly: Antibacterial activity against Bacillus subtilis ATCC 6633 by MH media dilution method. Type of series: functional.
The test system of series [15] is Staphylococcus aureus. Put plainly: Antibacterial activity against Staphylococcus aureus ATCC 6538 by MH media dilution method. It counts as functional.
A short description of series [16]: Inhibition of Staphylococcus aureus TyrRS using L-tyrosine and tRNA as substrate preincubated for 10 mins followed by substrate addition by liquid scintillation counting method.
Series [17] can be described thus: Acute oral toxicity in mouse assessed as induction of mortality measured once daily for 14 days. The conditions noted are these: in vivo, time 14 day.
In series [18] the test system is Pseudomonas aeruginosa. Put plainly: Antibacterial activity against Pseudomonas aeruginosa ATCC 13525 incubated for 24 hrs by two fold serial dilution method. It counts as functional.
For series [19], the system named is Escherichia coli. The series is described as follows: Antibacterial activity against Escherichia coli ATCC 35218 incubated for 24 hrs by two fold serial dilution method. Type of series: functional.
A short description of series [20]: Inhibition of Escherichia coli N-terminal His-tagged FabH expressed in Escherichia coli BL21(DE3) by liquid scintillation counting method.
Series [21] can be described thus: Acute oral toxicity in mouse assessed as behavioral changes measured once daily for 14 days. The conditions noted are these: in vivo, time 14 day.
For series [22], the system named is Staphylococcus aureus. Put plainly: Antibacterial activity against Staphylococcus aureus ATCC 6538 incubated for 24 hrs by two fold serial dilution method. It counts as functional.
For series [23], the system named is Bacillus spizizenii. Put plainly: Antibacterial activity against Bacillus subtilis ATCC 6633 incubated for 24 hrs by two fold serial dilution method. It counts as functional.
Series [24] is described as follows: Acute oral toxicity in mouse assessed as signs of gross toxicity measured once daily for 14 days. To be noted: in vivo, time 14 day.
The nature of series [25]: Cytotoxicity against African green monkey Vero cells incubated for 48 hrs by sulforhodamine B method. It counts as cell-based. The conditions noted are these: chlorocebus sabaeus.
Series [26] has as its system Trichomonas vaginalis. The series is described as follows: Anti-trichomonas activity against Trichomonas vaginalis GT3 incubated for 48 hrs. Type of series: functional, organism-based. The conditions noted are these: GT3, 48 h.
Series [27] in a line: Selectivity index, ratio of CC50 for African green monkey Vero cells to IC50 for antigiardial activity against Trichomonas vaginalis GT3. Type of series: toxicity. To be noted: read-out: Ratio CC50/IC50.
Series [28] in a line: Selectivity index, ratio of CC50 for African green monkey Vero cells to IC50 for antigiardial activity against Giardia intestinalis MSS:0696:1. Type of series: toxicity. To be noted: read-out: Ratio CC50/IC50.
Series [29] deals with Giardia intestinalis. The series is described as follows: Antigiardial activity against Giardia intestinalis MSS:0696:1 incubated for 48 hrs. Type of series: functional, organism-based. To be noted: Giardia duodenalis, MSS:0696:1, 48 h.
For series [30], the target named is Telomerase reverse transcriptase (Homo sapiens, UniProt O14746). The series is described as follows: Inhibition of telomerase in human SGC-7901 cell extract by TRAP assay.
Series [31] deals with U-251. Put plainly: Antiproliferative activity against human U-251 cells incubated for 24 to 48 hrs by CCK8 assay. Type of series: functional, cell-based. For orientation: Tetrazolium assays rely on reduction of a dye to a coloured formazan, in cell work by metabolically active cells.
Series [32] relates to HeLa. Put plainly: Antiproliferative activity against human Hela cells incubated for 24 to 48 hrs by CCK8 assay. It counts as functional, cell-based.
For series [33], the system named is HepG2. Put plainly: Antiproliferative activity against human HepG2 cells incubated for 24 to 48 hrs by CCK8 assay. It counts as functional, cell-based.
In series [34] the test system is A549. The series is described as follows: Antiproliferative activity against human A549 cells incubated for 24 to 48 hrs by CCK8 assay. It counts as functional, cell-based.
Series [35] relates to Helicobacter pylori. The series is described as follows: Antibacterial activity against Helicobacter pylori ATCC 26695 incubated for 48 hrs by MTT assay. It counts as functional, organism-based.
Series [36] relates to Helicobacter pylori. The series is described as follows: Antibacterial activity against Helicobacter pylori P12 incubated for 48 hrs by MTT assay. Type of series: functional, organism-based.
For series [37], the system named is Clostridium perfringens. The series is described as follows: Antibacterial activity against Clostridium perfringens ATCC 13124 incubated for 48 hrs under anaerobic condition by MTT assay. It counts as functional.
Series [38] concerns MCF7. Put plainly: cells. The conditions noted are these: Homo sapiens, MCF7, 24 h.
The test system of series [39] is HEK293. Put plainly: Cytotoxicity against HEK293 cells after 24 hrs by MTT assay. It counts as cell-based. The conditions noted are these: Homo sapiens, HEK293, 24 h.
Series [40] relates to MDA-MB-231. The series is described as follows: Antiproliferative activity against human MDA-MB-231 cells after 24 hrs by MTT assay. Type of series: functional, cell-based. The conditions noted are these: MDA-MB-231, 24 h.
For series [41], the system named is Entamoeba histolytica. Put plainly: Antiamoebic activity against Entamoeba histolytica HM-1:IMSS trophozoites measured after 72 hrs by microdilution method. Type of series: functional, organism-based. On the technique in general: In broth dilution the organism is exposed to a series of concentrations in liquid medium.

Chain of Telomerase reverse transcriptase (O14746 whole entry): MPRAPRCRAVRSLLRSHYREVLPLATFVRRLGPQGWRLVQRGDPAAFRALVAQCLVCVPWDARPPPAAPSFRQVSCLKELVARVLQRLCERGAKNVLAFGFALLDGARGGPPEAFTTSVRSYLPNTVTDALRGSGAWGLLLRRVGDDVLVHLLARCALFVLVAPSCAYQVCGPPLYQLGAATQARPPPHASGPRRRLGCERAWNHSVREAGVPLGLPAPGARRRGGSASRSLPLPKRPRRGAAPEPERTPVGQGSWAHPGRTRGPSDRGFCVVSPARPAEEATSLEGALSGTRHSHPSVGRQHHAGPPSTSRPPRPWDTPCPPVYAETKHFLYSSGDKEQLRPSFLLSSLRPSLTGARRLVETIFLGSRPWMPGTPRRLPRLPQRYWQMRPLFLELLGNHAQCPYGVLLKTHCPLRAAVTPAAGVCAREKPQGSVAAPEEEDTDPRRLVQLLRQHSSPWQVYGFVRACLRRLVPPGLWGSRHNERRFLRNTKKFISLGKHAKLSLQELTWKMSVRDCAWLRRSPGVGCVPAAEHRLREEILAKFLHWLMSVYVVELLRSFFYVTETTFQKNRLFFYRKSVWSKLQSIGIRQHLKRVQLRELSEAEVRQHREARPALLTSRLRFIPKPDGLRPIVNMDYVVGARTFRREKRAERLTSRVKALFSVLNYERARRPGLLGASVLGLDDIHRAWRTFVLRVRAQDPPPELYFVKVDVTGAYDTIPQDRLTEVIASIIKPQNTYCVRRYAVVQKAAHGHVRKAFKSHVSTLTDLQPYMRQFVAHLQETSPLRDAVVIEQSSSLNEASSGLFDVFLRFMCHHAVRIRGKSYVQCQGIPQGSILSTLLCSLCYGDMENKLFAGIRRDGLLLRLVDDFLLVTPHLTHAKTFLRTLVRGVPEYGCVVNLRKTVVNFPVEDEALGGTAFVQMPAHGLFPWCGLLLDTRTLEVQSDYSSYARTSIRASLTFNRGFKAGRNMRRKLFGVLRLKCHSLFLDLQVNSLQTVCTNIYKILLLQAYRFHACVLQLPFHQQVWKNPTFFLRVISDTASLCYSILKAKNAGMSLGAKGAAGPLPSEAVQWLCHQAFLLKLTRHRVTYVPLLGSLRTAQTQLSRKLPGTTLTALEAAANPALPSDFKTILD

As to `Cc1cc(C)nc(NS(=O)(=O)c2ccc(/N=C\c3ccc(OCCn4c([N+](=O)[O-])cnc4C)cc3)cc2)n1`, the IC50 in [1] was determined as 190 nM.

As for `COc1cc(/C=C\c2ncc([N+](=O)[O-])n2CCOC(=O)c2c[nH]c3ccccc23)cc(OC)c1OC`, the IC50 came to 40 nM in series [2], 35 nM in [3], 15 nM in series [4] and 30 nM in series [5].

On to `Cc1ncc([N+](=O)[O-])n1CCOc1ccc(C(=O)Cc2ccc([N+](=O)[O-])cc2)c(O)c1O`, for which the MIC in series [6] is 1.76 µM (≈ 0.779 µg/mL); in series [7] it was 1.76 µM (≈ 0.779 µg/mL); in series [8] it was 1.76 µM (≈ 0.779 µg/mL); in [9], 1.76 µM (≈ 0.779 µg/mL); in [10] it was 0.88 µM (≈ 0.389 µg/mL); in series [11] it was 1.76 µM (≈ 0.779 µg/mL).

`COc1ccc(-c2cc(C(=O)OCCn3c([N+](=O)[O-])cnc3C)nn2-c2ccccc2)cc1`: the MIC worked out at 0.98 µg/mL (≈ 2.19 µM) in series [12], 1.96 µg/mL (≈ 4.38 µM) in [13], 3.91 µg/mL (≈ 8.74 µM) in [14] and 3.91 µg/mL (≈ 8.74 µM) in series [15]. The compound further yielded an IC50 in [16] of 920 nM.

`Cc1ccnc(NS(=O)(=O)c2ccc(/N=C/c3ccc(C(=O)OCCn4c([N+](=O)[O-])cnc4C)cc3)cc2)n1`: the 50% lethal dose (LD50) at 336 h in series [17], in series [21] and in series [24] was greater than 5000 mg/kg in each case. The MIC turned out to be 12.5 µg/mL (≈ 22.7 µM) in [18], 3.13 µg/mL (≈ 5.7 µM) in [19], 12.5 µg/mL (≈ 22.7 µM) in series [22] and 6.25 µg/mL (≈ 11.4 µM) in series [23]. In addition, the IC50 in [20] stood at 5590 nM.

Compound `Cc1ncc([N+](=O)[O-])n1CCOC(=O)Nc1ccccc1` had a CC50 at 48 h in [25] greater than 100000 nM. In addition, the IC50 in [26] turned out to be 90 nM; in series [29] it was 980 nM. Besides, the selectivity ratio in series [27] was 1110; in series [28], greater than 102.

On to `Cc1cc(C)nc(NS(=O)(=O)c2ccc(/N=C/c3ccc(C(=O)OCCn4c([N+](=O)[O-])cnc4C)cc3)cc2)n1`, for which the LD50 at 336 h in series [17], in series [21] and in series [24] was greater than 5000 mg/kg in each case. For the same compound, the MIC was 3.13 µg/mL (≈ 5.55 µM) in series [18], 1.56 µg/mL (≈ 2.77 µM) in series [19], 3.13 µg/mL (≈ 5.55 µM) in series [22] and 1.56 µg/mL (≈ 2.77 µM) in [23]. This compound displayed an IC50 in [20] of 2690 nM.

For the compound `O=C(OCCn1c([N+](=O)[O-])cnc1/C=C/c1ccc2ccccc2c1)c1nccc2ccccc12`, the IC50 in series [30] amounted to 980 nM; in series [31], 320 nM; in series [32], 50 nM; in series [33] it was 100 nM; in series [34] it was 110 nM.

In the case of `COc1cc2c(c(OC)c1OC)-c1ccc(OC)c(=O)cc1[C@@H](NC(C)=O)CC2` [COLCHICINE], the IC50 in series [2] stood at 45 nM; in series [3], 37 nM; in series [4], 55 nM; in series [5], 38 nM.

Take `Cc1ccc(C(C)C)cc1OC(=O)Cn1c([N+](=O)[O-])cnc1C`: the IC50 in [35] is recorded as 52.35 uM/ml; in series [36], 35.17 uM/ml. The compound further yielded an MIC in series [37] of 0.0094 µM (≈ 0.00298 µg/mL).

With `Cc1ncc([N+](=O)[O-])n1Cc1cn(CCCCCN2C(=O)C(=O)c3cc(F)ccc32)nn1`, the IC50 in series [38] is 70700 nM; in series [39], greater than 100000 nM; in [40] it was 56200 nM.

In [41], `Cc1ncc([N+](=O)[O-])n1CCOC(=O)Nc1ccc(OS(=O)(=O)c2ccc(C(F)(F)F)cc2)cc1` gave an IC50 of 240 nM.

Consider `Cc1ncc([N+](=O)[O-])n1CCOC(=O)Nc1ccc([N+](=O)[O-])cc1`, for which the CC50 at 48 h in [25] was greater than 100000 nM. Besides, the values for the IC50 in series [26] and in [29] were 9990 nM and 860 nM, respectively. Also, the figures for the selectivity ratio in series [27] and in series [28] were greater than 10 and greater than 116, respectively.

(Values after ChEMBL document CHEMBL4813920, “Metronidazole-conjugates: A comprehensive review of recent developments towards synthesis and medicinal perspective” (Eur J Med Chem, 2021).)
